{
  "source": "patent US20230346827A1",
  "about": "(priority 2020, published 2023)",
  "key": {"[1]": {"tested_on": "keratinocytes and HDFn + (IL-1β, TNFα, IFNy and TGFβ)", "assay": "BioMAP KF3CT system", "assay_type": "cell-based, human", "conditions": "annotated relative to vehicle controls", "description": "Cell types and stimuli used in each system are as follows: 3C system [HUVEC + (IL-1β, TNFα and IFNy)], 4H system [HUVEC + (IL-4 and histamine)], LPS system [PBMC and HUVEC + LPS (TLR4 ligand)], SAg system [PBMC and HUVEC + TCR ligands], BT system [CD19+ B cells and PBMC + (α-IgM and TCR ligands)], BF4T system [bronchial epithelial cells and HDFn + (TNFα and IL-4)], BE3C system [bronchial epithelial cells + (IL-1β, TNFα and IFNy)], CASM3C system [coronary artery smooth muscle cells + (IL-1 β, TNFα and IFNy)], HDF3CGF system [HDFn + (IL-1β, TNFα, IFNy, EGF, bFGF and PDGF-BB)], KF3CT system [keratinocytes and HDFn + (IL-1β, TNFα, IFNy and TGFβ)], MyoF system [differentiated lung myofibroblasts + (TNFα and TGFβ)] and Mphg system [HUVEC and M1 macrophages + Zymosan (TLR2 ligand)].\nSystems are derived from either single cell types or co-culture systems. Adherent cell types are cultured in 96 or 384-well plates until confluence, followed by the addition of PBMC (SAg and LPS systems). […] Soluble factors from supernatants are quantified using either HTRF® detection, bead-based multiplex immunoassay or capture ELISA. Overt adverse effects of test agents on cell proliferation and viability (cytotoxicity) are detected by sulforhodamine B (SRB) staining, for adherent cells, and alamarBlue® reduction for cells in suspension. […]"}, "[2]": {"tested_on": "Mouse cortical neurons", "assay": "Gene expression array and pathway analysis, cortical neurons, LMW-DS 0.01 mg/ml 48 h", "assay_type": "cell-based", "conditions": "for number of genes: abolished nutrient effect / number of genes: new effect induced by LMW-DS / number of genes: total / number of genes: enhanced response to nutrients / number of genes: not different from control: cortical neurons", "procedure": "For each cell line, n=8 × 25 cm^2 culture flasks were set up. Two flasks were harvested for each cell type on the day of treatment (24 hours after seeding). This represents the Day0 time point. From the remaining flasks, three flasks were treated with Control Medium and three were treated with Culture Medium (CM) containing LMW-DS to give a final concentration of 0.01 mg/ml. Cells from the treated flasks were collected after 48 hours. Therefore the collected data represent (a) untreated cells (Day0 Controls and Day2 Controls) and (b) cells treated with LMW-DS (ILB®, Tikomed AB, Viken, Sweden, WO 2016/076780) for 48 hours (Day2 LMW-DS treated).\nMedium was prepared by adding 10 ml B-27 Serum-Free Supplement and 2.5 ml GlutaMAX™-1 Supplement to 500 ml of Neurobasal medium. The medium was pre-warmed to 37° C. Cells from 12 vials were thawed sequentially in a 37° C. water bath for no longer than 2 min and gently transferred into a 15 ml tube. 9 ml of medium was gently added drop-wise to each. The cell suspension was mixed by inverting the tubes carefully twice.\nThe cells were centrifuged for 5 minutes at 200 x g. Supernatant was removed (to the last 0.5 ml) and cells were gently re-suspended by trituration. The cells from the 12 vials were mixed and distributed equally into the previously coated 25 cm^2 flasks (n=8). Cells were incubated at 37° C. with 5% CO2 for 24 hours.\nLMW-DS was provided at a stock concentration of 20 mg/ml and was kept in a temperature monitored refrigerator at 4° C. A fresh 100x LMW-DS stock (1.0 mg/ml) was prepared in sterile DMEM-F12. The concentrated drug stock was sterile filtered and added to the respective culture media (19.6 ml CM and 0.4 ml LMW-DS stock solution). The Control was made using 19.6 ml CM and 0.4 ml of DMEM-F12. LMW-DS and CM were added to the respective flasks (5 ml each) to reach the 0.01 mg/ml concentration of LMW-DS in each dish with a total of 10 ml CM each.\nCM was aspirated into a clean and labelled 15 ml Falcon tube. The flasks (without culture medium) were placed into the -80° C. freezer for 30 minutes. The CM in the Falcon tubes was spun at 3000 x g for 5 minutes. Supernatant was removed and the small pellet was re-suspended in 2.5 ml Trizol:Water (4:1) solution at room temperature (RT, ~22° C.).\nTwo aliquots of 1 ml lysate were removed from each sample and 200 µl of chloroform was added to each (0.2 ml of chloroform per 1 ml of TRIzol Reagent used during the cell lysis step) and the tube was shaken vigorously. Samples were stored at RT for 2-3 minutes and subsequently centrifuged at 12,000 x g for 15 minutes at 4° C.\nThe RNA was precipitated from the aqueous phase by adding an equal amount of 100% ethanol. The precipitated RNA was fixed onto a Spin Cartridge, washed twice and dried. The RNA was eluted in 50 µl warm RNase-Free Water. The amount and quality of the purified RNA was measured by Nanodrop. The RNA was stored at -80° C. before transfer to Source Bioscience for Array analysis.\nThe expression data were downloaded into separate files for each cell line. The ‘Background corrected’ expression is the data from the “gProcessedSignal” of the arrays that is the result of the background signal extracted from the actual signal of the relevant probe. This is the most often used variable in array analysis. The background corrected signal was log2 transformed for all samples for statistical analysis. To reduce the false discovery rate in the samples, the signals that were below ‘expression level’ were removed. The ‘below expression’ level was set at 5 for the log2 transformed expression values.\nBased on the expression pattern of the Control probes on each array it was decided to carry out Median Centering for all arrays before analysis to reduce the variability of the results. […]"}, "[3]": {"conditions": "pathway analysis of gene expression"}},
  "data": [
    {"substance": "sodium salt of dextran sulfate [LMW-DS]", "values": [
      {"measurement": "Decreased biomarker activity", "setting": "[1]", "result": "MCP-1"},
      {"measurement": "Increased biomarker activity", "setting": "[1]", "result": "IL-8"},
      {"measurement": "number of differentially expressed genes", "setting": "[2]; D0 control to D2 LMW-DS treated", "result": 609},
      {"measurement": "number of differentially expressed genes", "setting": "[2]; D0 control to D2 LMW-DS treated (second statement)", "result": 247},
      {"measurement": "number of genes: abolished nutrient effect", "setting": "[2]; no effect", "result": 572},
      {"measurement": "number of genes: new effect induced by LMW-DS", "setting": "[2]; no effect", "result": 19},
      {"measurement": "number of genes: total", "setting": "[2]; no effect", "result": 591},
      {"measurement": "number of genes: abolished nutrient effect", "setting": "[2]; significant downregulation", "result": 7},
      {"measurement": "number of genes: enhanced response to nutrients", "setting": "[2]; significant downregulation", "result": 158},
      {"measurement": "number of genes: new effect induced by LMW-DS", "setting": "[2]; significant downregulation", "result": 22},
      {"measurement": "number of genes: not different from control", "setting": "[2]; significant downregulation", "result": 95},
      {"measurement": "number of genes: total", "setting": "[2]; significant downregulation", "result": 282},
      {"measurement": "number of genes: abolished nutrient effect", "setting": "[2]; significant upregulation", "result": 33},
      {"measurement": "number of genes: enhanced response to nutrients", "setting": "[2]; significant upregulation", "result": 43},
      {"measurement": "number of genes: new effect induced by LMW-DS", "setting": "[2]; significant upregulation", "result": 7},
      {"measurement": "number of genes: not different from control", "setting": "[2]; significant upregulation", "result": 221},
      {"measurement": "number of genes: total", "setting": "[2]; significant upregulation", "result": 304},
      {"measurement": "number of genes: abolished nutrient effect", "setting": "[2]; total", "result": 612},
      {"measurement": "number of genes: enhanced response to nutrients", "setting": "[2]; total", "result": 612},
      {"measurement": "number of genes: new effect induced by LMW-DS", "setting": "[2]; total", "result": 48},
      {"measurement": "number of genes: not different from control", "setting": "[2]; total", "result": 316},
      {"measurement": "number of genes: total", "setting": "[2]; total", "result": 1177},
      {"measurement": "deleterious effects of oxidative stress (amyloid-β and Lewy body pathology, mitochondrial dysfunction)", "setting": "[2]; [3]", "result": "prevent and reverse"},
      {"measurement": "glutamate production", "setting": "[2]; [3]", "result": "did not alter"}
    ]}
  ]
}
